According to BigSolDB 2.1:

Nc1ncnc2c1ncn2CCOCP(=O)(O)O
solubility (mole fraction) (in DMF, 278.15 K): 0.000121
solubility (mole fraction) (in DMF, 283.15 K): 0.000203
solubility (mole fraction) (in DMF, 288.15 K): 0.000318
solubility (mole fraction) (in DMF, 293.15 K): 0.000491
solubility (mole fraction) (in DMF, 298.15 K): 0.000762
solubility (mole fraction) (in DMF, 303.15 K): 0.00115
solubility (mole fraction) (in DMF, 308.15 K): 0.00172
solubility (mole fraction) (in DMF, 313.15 K): 0.00254
solubility (mole fraction) (in DMF, 318.15 K): 0.00368
solubility (mole fraction) (in DMF, 323.15 K): 0.0053
solubility (mole fraction) (in acetone, 278.15 K): 0.000103
solubility (mole fraction) (in acetone, 283.15 K): 0.000114
solubility (mole fraction) (in acetone, 288.15 K): 0.000145
solubility (mole fraction) (in acetone, 293.15 K): 0.00018
solubility (mole fraction) (in acetone, 298.15 K): 0.000231
solubility (mole fraction) (in acetone, 303.15 K): 0.000286
solubility (mole fraction) (in acetone, 308.15 K): 0.000359
solubility (mole fraction) (in acetone, 313.15 K): 0.000435
solubility (mole fraction) (in acetone, 318.15 K): 0.000531
solubility (mole fraction) (in acetone, 323.15 K): 0.00065
solubility (mole fraction) (in ethanol, 278.15 K): 7.5e-05
solubility (mole fraction) (in ethanol, 283.15 K): 9.4e-05
solubility (mole fraction) (in ethanol, 288.15 K): 0.00012
solubility (mole fraction) (in ethanol, 293.15 K): 0.000154
solubility (mole fraction) (in ethanol, 298.15 K): 0.000191
solubility (mole fraction) (in ethanol, 303.15 K): 0.000237
solubility (mole fraction) (in ethanol, 308.15 K): 0.000291
solubility (mole fraction) (in ethanol, 313.15 K): 0.000342
solubility (mole fraction) (in ethanol, 318.15 K): 0.000438
solubility (mole fraction) (in ethanol, 323.15 K): 0.000541
solubility (mole fraction) (in isobutanol, 278.15 K): 0.000183
solubility (mole fraction) (in isobutanol, 283.15 K): 0.000211
solubility (mole fraction) (in isobutanol, 288.15 K): 0.000252
solubility (mole fraction) (in isobutanol, 293.15 K): 0.000296
solubility (mole fraction) (in isobutanol, 298.15 K): 0.000365
solubility (mole fraction) (in isobutanol, 303.15 K): 0.000433
solubility (mole fraction) (in isobutanol, 308.15 K): 0.000505
solubility (mole fraction) (in isobutanol, 313.15 K): 0.000597
solubility (mole fraction) (in isobutanol, 318.15 K): 0.00069
solubility (mole fraction) (in isobutanol, 323.15 K): 0.00081
solubility (mole fraction) (in methanol, 278.15 K): 0.000352
solubility (mole fraction) (in methanol, 283.15 K): 0.000395
solubility (mole fraction) (in methanol, 288.15 K): 0.000455
solubility (mole fraction) (in methanol, 293.15 K): 0.000523
solubility (mole fraction) (in methanol, 298.15 K): 0.0006
solubility (mole fraction) (in methanol, 303.15 K): 0.000704
solubility (mole fraction) (in methanol, 308.15 K): 0.000805
solubility (mole fraction) (in methanol, 313.15 K): 0.000915
solubility (mole fraction) (in methanol, 318.15 K): 0.00105
solubility (mole fraction) (in methanol, 323.15 K): 0.00122
solubility (mole fraction) (in n-heptane, 278.15 K): 0.000127
solubility (mole fraction) (in n-heptane, 283.15 K): 0.000139
solubility (mole fraction) (in n-heptane, 288.15 K): 0.000175
solubility (mole fraction) (in n-heptane, 293.15 K): 0.000217
solubility (mole fraction) (in n-heptane, 298.15 K): 0.000269
solubility (mole fraction) (in n-heptane, 303.15 K): 0.000325
solubility (mole fraction) (in n-heptane, 308.15 K): 0.000394
solubility (mole fraction) (in n-heptane, 313.15 K): 0.000473
solubility (mole fraction) (in n-heptane, 318.15 K): 0.00057
solubility (mole fraction) (in n-heptane, 323.15 K): 0.000679
solubility (mole fraction) (in n-propanol, 278.15 K): 0.000217
solubility (mole fraction) (in n-propanol, 283.15 K): 0.000235
solubility (mole fraction) (in n-propanol, 288.15 K): 0.000279
solubility (mole fraction) (in n-propanol, 293.15 K): 0.000343
solubility (mole fraction) (in n-propanol, 298.15 K): 0.000409
solubility (mole fraction) (in n-propanol, 303.15 K): 0.000485
solubility (mole fraction) (in n-propanol, 308.15 K): 0.00058
solubility (mole fraction) (in n-propanol, 313.15 K): 0.000681
solubility (mole fraction) (in n-propanol, 318.15 K): 0.0008
solubility (mole fraction) (in n-propanol, 323.15 K): 0.00093
solubility (mole fraction) (in toluene, 278.15 K): 5.7e-05
solubility (mole fraction) (in toluene, 283.15 K): 6.5e-05
solubility (mole fraction) (in toluene, 288.15 K): 8.7e-05
solubility (mole fraction) (in toluene, 293.15 K): 0.000115
solubility (mole fraction) (in toluene, 298.15 K): 0.000144
solubility (mole fraction) (in toluene, 303.15 K): 0.000185
solubility (mole fraction) (in toluene, 308.15 K): 0.000239
solubility (mole fraction) (in toluene, 313.15 K): 0.000295
solubility (mole fraction) (in toluene, 318.15 K): 0.000373
solubility (mole fraction) (in toluene, 323.15 K): 0.000464
